Experimental data published in patent US20210330611A1, “THERAPY FOR NEUROLOGICAL DISEASES/DISORDERS” (priority 2020, published 2021).
Counter-ions that a name gives are not always drawn. Like-named read-outs stand apart in the source and are kept apart here.

What was measured:
primary rat microglia [1] = system: primary rat microglia;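 for Fibrin % cell toxicity: share of dead cells sized under 150 µm2 at 10 µM in fibrin-stimulated microglia HTS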
primary rat microglia [2] = system: primary rat microglia; remark: listed apart in the source;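 for Fibrin % cell toxicity: share of dead cells sized under 150 µm2 at 10 µM in fibrin-stimulated microglia HTS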
[3] = system: fibrin-induced microglia activation; assay: Image-based assay of fibrin-induced microglia activation (HTS and dose response); type: cell-based, rat; settings: for inhibition at 10 µM: Rattus norvegicus, Microglia, read-out: Fibrin % inhibition
[4] = system: fibrin- and LPS-induced microglia activation; assay: cells; type: cell-based, rat
[5] = system: LPS-induced microglia activation; assay: Image-based assay of LPS-induced microglia activation (HTS and dose response); type: cell-based, rat
[6] = Rattus norvegicus, Microglia, read-out: LPS % inhibition
[7] = primary microglia HTS, fibrin stimulation, cell size >800 μm2 as marker of activation
[8] = classification by fibrin and LPS inhibition in HTS
[9] = Rattus norvegicus, Microglia, 48 h, read-out: LPS % inhibition
[10] = primary HTS, 10 μM, fibrin-stimulated primary microglia
[11] = Rattus norvegicus, Microglia, primary HTS, 10 μM, LPS-stimulated primary microglia; read-out: LPS % inhibition
[12] = primary microglia HTS, 10 μM, fibrin-stimulated, cell size >800 μm^2 as marker of activation
[13] = HTS of 1907 compounds, quadrant by fibrin and LPS inhibition
[14] = Rattus norvegicus, Microglia, primary microglia HTS, 10 μM, LPS-stimulated, cell size >800 μm^2 as marker of activation; read-out: LPS % inhibition
[15] = Rattus norvegicus, Microglia, 48 h; read-out: LPS % inhibition
[16] = primary microglia HTS, fibrin stimulation, increased cell size (>800 μm^2) as marker of activation
[17] = quadrant by fibrin and LPS inhibition in HTS of 1907 compounds
[18] = Rattus norvegicus, Microglia, 48 h, primary microglia HTS, LPS stimulation; increased cell size (>800 μm^2) as marker of activation; read-out: LPS % inhibition
[19] = primary microglia HTS, fibrin stimulation, compounds at 10 μM
[20] = Rattus norvegicus, Microglia, primary microglia HTS, LPS stimulation, compounds at 10 μM; read-out: LPS % inhibition

Row | Structure (SMILES) | Fibrin % cell toxicity (primary rat microglia [1]; rat) | LPS % cell toxicity (primary rat microglia [2]; rat) | inhibition at 10 µM [3] | Quadrant (FIG. 5b) [4] | also measured
1 | Nc1nc(=O)n([C@@H]2CS[C@H](CO)O2)cc1F [Emtricitabine] | 1% | 1% | -73% | Q4 | inhibition at 10 µM [5, 6]: 11%
2 | C=C[C@H]1C[N@@]2CC[C@H]1C[C@H]2[C@H](O)c1ccnc2ccc(OC)cc12 [Quinine Sulfate] | 1% | 1% | – | – | Fibrin % inhibition [3, 7]: −30%; Quadrant (FIG. 5b) [4, 8]: Q4; LPS % inhibition [5]: 14%
3 | Cn1cc[nH]c1=S [Methimazole] | 0% | 0% | -29% | Q4 | inhibition at 10 µM [5, 9]: 12%
4 | CC(C)(C)NCC(O)c1cc(Cl)c(N)c(Cl)c1 (centres unmarked) [Clenbuterol] | 1% | 0% | – | – | inhibition at 10 µM [3, 10]: 11%; Quadrant (FIG. 5b) ([4]; primary HTS, 10 μM): Q4; inhibition at 10 µM [5, 11]: 25%
5 | COc1cc2c(c(OC)c1OC)-c1ccc(OC)c(=O)cc1[C@@H](NC(C)=O)CC2 [Colchicine, reference compound] | 12% | 10% | 114% | Q2 | Activity [4]: fib/LPS; inhibition at 10 µM [5, 9]: 113%
6 | CC(=O)Nc1c(I)c(NC(C)=O)c(I)c(C(=O)O)c1I [Diatrizoate] | 0% | 0% | 4% | Q4 | inhibition at 10 µM [5, 6]: 5%
7 | COc1cc2nc(N3CCN(C(=O)C4CCCO4)CC3)nc(N)c2cc1OC (centres unmarked) [Terazosin] | 1% | 0% | -1% | Q4 | inhibition at 10 µM [5, 6]: 9%
8 | O=c1n(Cl)c(=O)n(Cl)c(=O)n1Cl [Symclosene] | 0% | 0% | – | – | inhibition at 10 µM [3, 12]: -13%; Quadrant (FIG. 5b) [4, 13]: Q4; inhibition at 10 µM [5, 14]: 11%
9 | CC(=O)[C@H]1CC[C@H]2[C@@H]3CC=C4C[C@@H](OC(=O)CCC(=O)O)CC[C@]4(C)[C@H]3CC[C@]12C [Pregnenolone Succinate] | 1% | 1% | – | – | inhibition at 10 µM [3, 7]: 4%; Quadrant (FIG. 5b) [4, 8]: Q4; inhibition at 10 µM [5, 15]: 21%
10 | Clc1ccc(Cn2c(CN3CCCC3)nc3ccccc32)cc1 [Clemizole Hydrochloride] | 0% | 1% | – | – | inhibition at 10 µM [3, 10]: -38%; Quadrant (FIG. 5b) ([4]; primary HTS, 10 μM): Q4; inhibition at 10 µM [5, 11]: 21%
11 | CC[N+](C)(C)Cc1ccccc1Br [Bretylium] | 0% | 0% | -26% | Q4 | inhibition at 10 µM [5, 6]: -9%
12 | CS(=O)(=O)OCCCCOS(C)(=O)=O [Busulfan] | 0% | 0% | – | – | inhibition at 10 µM [3, 10]: 1%; Quadrant (FIG. 5b) ([4]; primary HTS, 10 μM): Q4; inhibition at 10 µM [5, 11]: 2%
13 | CCCC(C)C1(CC)C(=O)NC(=S)NC1=O (centres unmarked) [Thiopental] | 0% | 0% | 3% | Q4 | inhibition at 10 µM [5, 6]: 13%
14 | CNC(=C[N+](=O)[O-])NCCSCc1csc(CN(C)C)n1 [Nizatidine] | 0% | 0% | – | – | inhibition at 10 µM [3, 16]: -18%; Quadrant (FIG. 5b) [4, 17]: Q4; inhibition at 10 µM [5, 18]: 14%
15 | Sc1ncnc2nc[nH]c12 [Mercaptopurine] | 0% | 0% | – | – | inhibition at 10 µM [3, 16]: 2%; Quadrant (FIG. 5b) [4, 17]: Q4; inhibition at 10 µM [5, 18]: 9%
16 | CC(=O)N1CCN(c2ccc(OCC3COC(Cn4ccnc4)(c4ccc(Cl)cc4Cl)O3)cc2)CC1 (centres unmarked) [Ketoconazole] | 0% | 0% | -57% | Q4 | inhibition at 10 µM [5, 9]: -1%

Row | Structure (SMILES) | Fibrin % cell toxicity (primary rat microglia [1]; rat) | LPS % cell toxicity (primary rat microglia [2]; rat) | inhibition at 10 µM [3] | Quadrant (FIG. 5b) [4] | also measured
17 | C#CCN(C)CCCOc1ccc(Cl)cc1Cl.Cl | – | – | – | Q4 | Fibrin % cell toxicity (primary rat microglia [1]): 0%; LPS % cell toxicity (primary rat microglia [2]): 0%; Fibrin % inhibition ([3]; 10 µM): −28%; LPS % inhibition ([5]; 10 µM): 6%
18 | Cc1ncc(CO)c(CO)c1O [Pyridoxine] | 1% | 0% | – | – | inhibition at 10 µM [3, 7]: 1%; Quadrant (FIG. 5b) [4, 8]: Q4; inhibition at 10 µM [5, 15]: 21%
19 | CC[C@H]1OC(=O)[C@H](C)[C@@H](O[C@H]2C[C@@](C)(OC)[C@@H](O)[C@H](C)O2)[C@H](C)[C@@H](O[C@@H]2O[C@H](C)C[C@H](N(C)C)[C@H]2O)[C@](C)(OC)C[C@@H](C)C(=O)[C@H](C)[C@@H](O)[C@]1(C)O [Clarithromycin] | 1% | 0% | – | – | inhibition at 10 µM [3, 10]: -7%; Quadrant (FIG. 5b) ([4]; primary HTS, 10 μM): Q4; inhibition at 10 µM [5, 11]: 18%
20 | COc1cccc2c1C(=O)c1c(O)c3c(c(O)c1C2=O)C[C@@](O)(C(=O)CO)C[C@@H]3O[C@H]1C[C@H](N)[C@@H](O)[C@H](C)O1 [Epirubicin, Epirubicin Hydrochloride] | – | – | – | – | Fibrin % cell toxicity (primary rat microglia [1]): 79%; LPS % cell toxicity (primary rat microglia [2]): 58%; Fibrin % inhibition [3, 16]: 113%; Quadrant (FIG. 5b) [4, 17]: Q2; LPS % inhibition ([5]; primary microglia HTS, LPS stimulation; increased cell size (>800 μm^2) as marker of activation): 123%
21 | CN(C)CCCN1c2ccccc2CCc2ccc(Cl)cc21 [Clomipramine] | 1% | 1% | -1% | Q4 | inhibition at 10 µM [5, 6]: 32%
22 | CC(C)(C)NCC(O)c1ccc(O)c(CO)c1 (centres unmarked) [Salbutamol] | 1% | 0% | – | – | inhibition at 10 µM [3, 7]: 25%; Quadrant (FIG. 5b) [4, 8]: Q4; inhibition at 10 µM [5, 15]: 25%
23 | CCN(CC)CC#CCOC(=O)C(O)(c1ccccc1)C1CCCCC1 (centres unmarked) [Oxybutynin] | 0% | 1% | -9% | Q4 | inhibition at 10 µM [5, 9]: 0%
24 | CCCC(=O)Nc1ccc(OCC(O)CNC(C)C)c(C(C)=O)c1 (centres unmarked) [Acebutolol] | 1% | 0% | – | – | inhibition at 10 µM [3, 19]: -11%; Quadrant (FIG. 5b) ([4]; quadrant by fibrin and LPS inhibition, HTS at 10 μM): Q4; inhibition at 10 µM [5, 20]: 19%
25 | CCOC(=O)C1=C[C@]2(CC)CCCN3CCc4c(n1c1ccccc41)[C@@H]32 [Vinpocetine] | 0% | 0% | – | – | inhibition at 10 µM [3, 12]: -19%; Quadrant (FIG. 5b) [4, 13]: Q4; inhibition at 10 µM [5, 14]: 0%
26 | FC(F)(F)C(Cl)Br (centres unmarked) [Halothane] | 1% | 0% | – | – | inhibition at 10 µM ([3]; primary microglia HTS, fibrin stimulation, activation = cell size >800 μm2): 17%; Quadrant (FIG. 5b) [4, 17]: Q4; inhibition at 10 µM ([5]; Rattus norvegicus, Microglia, 48 h, primary microglia HTS, LPS stimulation, activation = cell size >800 μm2; read-out: LPS % inhibition): 17%
27 | O=C1C[C@@H]2OCC=C3CN4CC[C@]56c7ccccc7N1[C@H]5[C@H]2[C@H]3C[C@H]46 [Strychnine] | 1% | 0% | 1% | Q4 | inhibition at 10 µM [5, 6]: 18%
28 | CC1(C)C[C@@H]1C(=O)N/C(=C\CCCCSC[C@H](N)C(=O)O)C(=O)O [Cilastatin] | 1% | 0% | -6% | Q4 | inhibition at 10 µM [5, 6]: 2%
29 | CN[C@H](CC(C)C)C(=O)N[C@H]1C(=O)N[C@@H](CC(N)=O)C(=O)N[C@H]2C(=O)N[C@H]3C(=O)N[C@H](C(=O)N[C@H](C(=O)O)c4cc(O)cc(O)c4-c4cc3ccc4O)[C@H](O)c3ccc(c(Cl)c3)Oc3cc2cc(c3O[C@@H]2O[C@H](CO)[C@@H](O)[C@H](O)[C@H]2O[C@H]2C[C@](C)(N)[C@H](O)[C@H](C)O2)Oc2ccc(cc2Cl)[C@H]1O [Vancomycin] | 1% | 0% | – | Q4 | Fibrin % inhibition ([3]; 10 µM): −1%; LPS % inhibition ([5]; 10 µM): −2%
30 | O=C1CCc2cc(OCCCCc3nnnn3C3CCCCC3)ccc2N1 [Cilostazol] | 1% | 1% | – | – | inhibition at 10 µM [3, 10]: 5%; Quadrant (FIG. 5b) ([4]; primary HTS, 10 μM): Q4; inhibition at 10 µM [5, 11]: 17%
31 | COc1ccc(Cc2cnc(N)nc2N)cc1OC [Diaveridine] | 1% | 1% | – | – | inhibition at 10 µM [3, 19]: -8%; Quadrant (FIG. 5b) ([4]; classification by fibrin and LPS inhibition, HTS at 10 μM): Q4; inhibition at 10 µM [5, 20]: 13%
32 | CC(C)=CC1C(C(=O)OCc2cccc(Oc3ccccc3)c2)C1(C)C (centres unmarked) [Phenothrin] | 0% | 0% | – | – | inhibition at 10 µM [3, 7]: -50%; Quadrant (FIG. 5b) [4, 8]: Q4; inhibition at 10 µM [5, 15]: 11%
